According to US9694016B2 (Novartis AG, priority 2013, dated 2017):
Like-named read-outs stand apart in the source and are kept apart here.

Target: b-Raf (V600E) (Homo sapiens (Human), UniProt P15056, V600E)
Conditions: read-out: b-Raf IC-50, AlphaScreen
[1] = 60 min pre-incubation, reaction 3 hours at room temperature
[2] = 60 min pre-incubation, 3 hours reaction

Sequence of b-Raf (V600E) (P15056 whole entry V600E): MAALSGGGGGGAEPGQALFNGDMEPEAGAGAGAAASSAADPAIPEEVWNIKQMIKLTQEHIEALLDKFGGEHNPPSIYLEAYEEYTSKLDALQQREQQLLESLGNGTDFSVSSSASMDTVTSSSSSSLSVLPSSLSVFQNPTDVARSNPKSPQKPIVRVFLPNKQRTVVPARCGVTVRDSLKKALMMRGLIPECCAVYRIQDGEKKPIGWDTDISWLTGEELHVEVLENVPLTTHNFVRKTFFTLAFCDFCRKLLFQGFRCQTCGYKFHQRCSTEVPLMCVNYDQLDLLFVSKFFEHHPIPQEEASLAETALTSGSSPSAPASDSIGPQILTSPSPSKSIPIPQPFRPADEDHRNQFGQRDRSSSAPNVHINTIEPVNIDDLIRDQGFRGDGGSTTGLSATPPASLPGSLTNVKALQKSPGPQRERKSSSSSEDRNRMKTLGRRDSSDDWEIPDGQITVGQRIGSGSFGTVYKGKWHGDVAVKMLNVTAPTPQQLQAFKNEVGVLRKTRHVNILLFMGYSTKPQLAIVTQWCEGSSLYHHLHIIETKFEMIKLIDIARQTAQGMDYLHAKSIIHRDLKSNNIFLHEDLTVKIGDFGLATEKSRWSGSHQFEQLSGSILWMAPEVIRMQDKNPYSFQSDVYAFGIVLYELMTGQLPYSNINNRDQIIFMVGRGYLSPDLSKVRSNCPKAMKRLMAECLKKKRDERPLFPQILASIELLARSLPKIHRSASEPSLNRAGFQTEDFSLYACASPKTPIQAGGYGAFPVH

Cc1ncc(NC(=O)c2cccc(C(F)(F)F)c2)cc1-c1cc(N2CCNCC2)nc(N2CCOCC2)c1 [Example 1129, N-(2-methyl-2′-morpholino-6′-(piperazin-1-yl)-[3,4′-bipyridin]-5-yl)-3-(trifluoromethyl)benzamide] showed an IC50 [1] of 4.64 nM.

C=C(C)c1ccc(F)c(NC(=O)c2ccc(C)c(-c3cnc(OCC)c(N4CCOCC4)c3)c2)c1 [Example 256, 3-(6-ethoxy-5-morpholinopyridin-3-yl)-N-(2-fluoro-5-(prop-1-en-2-yl)phenyl)-4-methylbenzamide] was tested, and the IC50 (Table 2, 3 hours reaction) was 1.8 nM.

Cc1ccc(NC(=O)c2ccnc(C(C)(C)F)c2)cc1-c1cc(C2COCCO2)nc(N2CCOCC2)c1 (stereo not shown) [Example 1144, N-(3-(2-(1,4-dioxan-2-yl)-6-morpholinopyridin-4-yl)-4-methylphenyl)-2-(2-fluoropropan-2-yl)isonicotinamide] showed an IC50 [1] of 1.56 nM.

Compound Cn1cc(-c2cc(NC(=O)c3ccnc(C(F)(F)F)c3)cnc2Cl)cc(N2CCOCC2)c1=O [Example 404, N-(2-chloro-1′-methyl-5′-morpholino-6′-oxo-1′,6′-dihydro-[3,3′-bipyridin]-5-yl)-2-(trifluoromethyl)isonicotinamide] has an IC50 (Table 2, 3 hours reaction) of 4.3 nM.

Work on Cc1ncc(NC(=O)c2cccc(C(F)F)c2)cc1-c1cc(N2CCOCC2)c2nccn2c1 [Example 880, 3-(difluoromethyl)-N-(6-methyl-5-(8-morpholinoimidazo[1,2-a]pyridin-6-yl)pyridin-3-yl)benzamide] yielded an IC50 [1] of 3.2 nM.

For Cc1ccc(NC(=O)c2cccc(C(F)(F)F)c2)cc1-c1cc(N2CCOCC2)nc(NCCO)n1 [Example 31, N-(3-(2-((2-hydroxyethyl)amino)-6-morpholinopyrimidin-4-yl)-4-methylphenyl)-3-(trifluoromethyl)benzamide], the IC50 (Table 2, 3 hours reaction) was 0.7 nM.

Work on Cc1ccc(NC(=O)c2ccnc(N3CCC3)c2)cc1-c1cc(N2CCOCC2)c(=O)n(C)c1 [Example 454, 2-(azetidin-1-yl)-N-(4-methyl-3-(1-methyl-5-morpholino-6-oxo-1,6-dihydropyridin-3-yl)phenyl)isonicotinamide] yielded an IC50 [2] of 1.9 nM.

CCc1cc(C(=O)Nc2ccc(C)c(-c3cc(N4CCOCC4)c(=O)n(C)c3)c2)ccn1 [Example 353, 2-ethyl-N-(4-methyl-3-(1-methyl-5-morpholino-6-oxo-1,6-dihydropyridin-3-yl)phenyl)isonicotinamide] showed an IC50 (Table 2, 3 hours reaction) of 1.2 nM.

Cc1ncc(NC(=O)c2ccnc(C(C)(C)O)c2)cc1-c1cnc(OC(C)C)c(N2CCOCC2)c1 [Example 955, 2-(2-hydroxypropan-2-yl)-N-(6′-isopropoxy-2-methyl-5′-morpholino-[3,3′-bipyridin]-5-yl)isonicotinamide] gave an IC50 [1] of 18.1 nM.

CC(F)(F)c1cc(C(=O)Nc2c[nH]c(=O)c(-c3ccnc(N4CCOCC4)c3)c2)ccn1 [Example 1171, 2-(1,1-difluoroethyl)-N-(2′-morpholino-2-oxo-1,2-dihydro-[3,4′-bipyridin]-5-yl)isonicotinamide] was tested, and the IC50 [1] was 25000 nM.

Cc1ncc(NC(=O)c2cc(C(C)(C)C#N)ccn2)cc1-c1cnc(OCCO)c(N2CCOCC2)c1 [Example 973, 4-(2-cyanopropan-2-yl)-N-(6′-(2-hydroxyethoxy)-2-methyl-5′-morpholino-[3,3′-bipyridin]-5-yl)picolinamide] gave an IC50 [1] of 15.8 nM.

Work on Cc1ncc(NC(=O)c2ccnc(C(C)(F)F)c2)cc1-c1cc(N2CCOCC2)c(=O)n(C)c1 [Example 391, 2-(1,1-difluoroethyl)-N-(1′,2-dimethyl-5′-morpholino-6′-oxo-1′,6′-dihydro-[3,3′-bipyridin]-5-yl)isonicotinamide] yielded an IC50 (Table 2, 3 hours reaction) of 12.3 nM.

Cc1ccc(NC(=O)c2ccnc(C(C)(C)C#N)c2)cc1-c1cc(N2CCOCC2)c(S(C)(=O)=O)nn1 [Example 931, 2-(2-cyanopropan-2-yl)-N-(4-methyl-3-(6-(methylsulfonyl)-5-morpholinopyridazin-3-yl)phenyl)isonicotinamide] was tested, and the IC50 [1] was 2.7 nM.

Work on Cc1ccc(NC(=O)c2ccnc(C(C)C)c2)cc1-c1cc(N2CCOCC2)nc(N2CC(O)C2)n1 [Example 771, N-(3-(2-(3-hydroxyazetidin-1-yl)-6-morpholinopyrimidin-4-yl)-4-methylphenyl)-2-isopropylisonicotinamide] yielded an IC50 [2] of 2.5 nM.

Cc1ncc(NC(=O)c2cnnc(C(F)(F)F)c2)cc1-c1cc(N2CCOCC2)nc(N2CC(C)(O)C2)c1 [Example 1107, N-(2′-(3-hydroxy-3-methylazetidin-1-yl)-2-methyl-6′-morpholino-[3,4′-bipyridin]-5-yl)-6-(trifluoromethyl)pyridazine-4-carboxamide] gave an IC50 [1] of 13.4 nM.

In the case of CCOc1ncc(-c2cc(C(=O)Nc3cccc(S(C)(=O)=O)c3)ccc2C)cc1N1CCOCC1 [Example 238, 3-(6-ethoxy-5-morpholinopyridin-3-yl)-4-methyl-N-(3-(methylsulfonyl)phenyl)benzamide], the IC50 (Table 2, 3 hours reaction) is reported as 0.9 nM.

For Cc1ncc(NC(=O)c2ccnc(C(F)F)c2)cc1-c1cc(NCCO)nc(N2CCOCC2)c1 [Example 1039, 2-(difluoromethyl)-N-(2′-((2-hydroxyethyl)amino)-2-methyl-6′-morpholino-[3,4′-bipyridin]-5-yl)isonicotinamide], the IC50 [1] was 5.04 nM.

COc1nnc(-c2cc(NC(=O)c3cnnc(C(F)(F)F)c3)ccc2C)cc1N1CCOCC1 [Example 551, N-(3-(6-methoxy-5-morpholinopyridazin-3-yl)-4-methylphenyl)-6-(trifluoromethyl)pyridazine-4-carboxamide] was tested, and the IC50 [2] was 1.2 nM.

CCNc1nc(-c2cc(NC(=O)c3ccnc(C4COC4)c3)ccc2C)cc(N2CCOCC2)n1 [Example 707, N-(3-(2-(ethylamino)-6-morpholinopyrimidin-4-yl)-4-methylphenyl)-2-(oxetan-3-yl)isonicotinamide] was tested, and the IC50 [2] was 1.9 nM.

Cc1ccc(NC(=O)c2ccnc(C(F)(F)F)c2)cc1-c1cc(N2CCOCC2)c(S(C)(=O)=O)nn1 [Example 930] showed an IC50 [1] of 1.03 nM.

Work on Cc1ccc(NC(=O)c2ccnc(C(F)F)c2)cc1-c1cc(N2CCOCC2)nc(N2CC(C)(O)C2)c1 [Example 1072, 2-(difluoromethyl)-N-(3-(2-(3-hydroxy-3-methylazetidin-1-yl)-6-morpholinopyridin-4-yl)-4-methylphenyl)isonicotinamide] yielded an IC50 [1] of 1.74 nM.

Compound Cc1ccc(NC(=O)c2cccc(C(F)(F)F)c2)cc1-c1nc2c(c(N3CCOCC3)n1)CNC2 [Example 836, N-(4-methyl-3-(4-morpholino-6,7-dihydro-5H-pyrrolo[3,4-d]pyrimidin-2-yl)phenyl)-3-(trifluoromethyl)benzamide] has an IC50 [2] of 3.1 nM.

For Cc1ncc(NC(=O)c2ccnc(C(C)(C)F)c2)cc1-c1cnc(Cl)c(N2CCOCC2)c1 [Example 290, N-(6′-chloro-2-methyl-5′-morpholino-[3,3-bipyridin]-5-yl)-2-(2-fluoropropan-2-yl)isonicotinamide], the IC50 (Table 2, 3 hours reaction) was 6 nM.

Cc1ccc(NC(=O)c2cnnc(C3(C#N)CC3)c2)cc1-c1cnc(OC2CCOCC2)c(N2CCOCC2)c1 [Example 302, 6-(1-cyanocyclopropyl)-N-(4-methyl-3-(5-morpholino-6-((tetrahydro-2H-pyran-4-yl)oxy)pyridin-3-yl)phenyl)pyridazine-4-carboxamide] showed an IC50 (Table 2, 3 hours reaction) of 0.6 nM.

Cc1ncc(NC(=O)c2ccnc(C(F)F)c2)cc1-c1cncc(N2CCOCC2)n1 [Example 535, 2-(difluoromethyl)-N-(6-methyl-5-(6-morpholinopyrazin-2-yl)pyridin-3-yl)isonicotinamide] was tested, and the IC50 [2] was 45.5 nM.

Cc1ccc(NC(=O)c2ccnc(C3CC3)c2)cc1-c1cc(N2CCOCC2)nc(N2CC(O)C2)c1 [Example 1068, 2-cyclopropyl-N-(3-(2-(3-hydroxyazetidin-1-yl)-6-morpholinopyridin-4-yl)-4-methylphenyl)isonicotinamide] was tested, and the IC50 [1] was 0.72 nM.

CCOc1nnc(-c2cc(NC(=O)c3ccnc(C(C)(F)F)c3)cnc2C)cc1N1CCOCC1 [Example 620, 2-(1,1-difluoroethyl)-N-(5-(6-ethoxy-5-morpholinopyridazin-3-yl)-6-methylpyridin-3-yl)isonicotinamide] gave an IC50 [2] of 1.9 nM.

In the case of Cc1ccc(NC(=O)c2cc(C(C)(C)O)ccn2)cc1-c1cc(N2CCOCC2)c(=O)n(C)c1 [Example 906, 4-(2-hydroxypropan-2-yl)-N-(4-methyl-3-(1-methyl-5-morpholino-6-oxo-1,6-dihydropyridin-3-yl)phenyl)picolinamide], the IC50 [1] is reported as 9.45 nM.

In the case of Cc1ncc(NC(=O)c2ccnc(C(C)(F)F)c2)cc1-c1cc(N2CCOCC2)c(OC(C)C)nn1 [Example 912, 2-(1,1-difluoroethyl)-N-(5-(6-isopropoxy-5-morpholinopyridazin-3-yl)-6-methylpyridin-3-yl)isonicotinamide], the IC50 [1] is reported as 2.25 nM.

Work on Cc1ncc(NC(=O)c2ccnc(C3CC3)c2)cc1-c1cc(N2CCOCC2)c(=O)n(C)n1 [Example 682, 2-cyclopropyl-N-(6-methyl-5-(1-methyl-5-morpholino-6-oxo-1,6-dihydropyridazin-3-yl)pyridin-3-yl)isonicotinamide] yielded an IC50 [2] of 6.9 nM.

Work on CCOc1ncc(-c2cc(NC(=O)c3cccc(C(F)(F)F)c3)cnc2C)cc1N1CCOCC1 [Example 248, N-(6′-ethoxy-2-methyl-5′-morpholino-[3,3′-bipyridin]-5-yl)-3-(trifluoromethyl)benzamide] yielded an IC50 (Table 2, 3 hours reaction) of 1.2 nM.

Work on CCOc1nnc(-c2cc(NC(=O)c3ccnc(C(C)(C)C#N)c3)ccc2C)cc1N1CCOCC1 [Example 573, 2-(2-cyanopropan-2-yl)-N-(3-(6-ethoxy-5-morpholinopyridazin-3-yl)-4-methylphenyl)isonicotinamide] yielded an IC50 [2] of 0.8 nM.

In the case of Cc1ncc(NC(=O)c2ccnc(C(C)(C)F)c2)cc1-c1cnc(N(C)C)c(N2CCOCC2)c1 [Example 268, N-(6′-(dimethylamino)-2-methyl-5-morpholino-[3,3′-bipyridin]-5-yl)-2-(2-fluoropropan-2-yl)isonicotinamide], the IC50 (Table 2, 3 hours reaction) is reported as 1.6 nM.

Cc1ncc(NC(=O)c2ccnc(C(C)(C)C)c2)cc1-c1cc(N2CCOCC2)nc(N2CC(O)C2)c1 [Example 1089, 2-(tert-butyl)-N-(2′-(3-hydroxyazetidin-1-yl)-2-methyl-6′-morpholino-[3,4′-bipyridin]-5-yl)isonicotinamide] showed an IC50 [1] of 71.4 nM.
